From ChEMBL document CHEMBL4706505, “F10, a new camptothecin derivative, was identified as a new orally-bioavailable, potent antitumor agent” (Eur J Med Chem, 2020)

Tests used:
[1] = Toxicity in NPG mouse xenografted with human Raji cells assessed as body weight loss at 2 mg/kg, ip measured on the day 1; format: organism-based; conditions: in vivo
[2] = Toxicity in NPG mouse xenografted with human Raji cells assessed as body weight loss at 4 mg/kg, ip measured after 5 day; format: organism-based; conditions: in vivo, 120 h
[3] = Toxicity in NPG mouse xenografted with human Raji cells assessed as body weight loss at 4 mg/kg, ig measured after 5 day; format: organism-based; conditions: in vivo, po, 120 h
Raji [4] = experiment: Antitumor activity against NPG mouse xenografted with human Raji cell assessed as decrease in tumor volume at 2 mg/kg, ip measured on the 1 day; format: functional
Raji [5] = experiment: Antitumor activity against NPG mouse xenografted with human Raji cell assessed as tumor growth inhibition at 2 mg/kg, ip measured after 5 day; format: functional; conditions: 120 h, read-out: TGI
[6] = MRT (0 to infinity) in nude BALB/c mouse serum at 8.0 mg/kg incubated up to 9 hrs, po administered via gavage by LC-MS/MS analysis; format: ADME, organism-based
[7] = Oral bioavailability in nude BALB/c mouse serum at 8.0 mg/kg incubated up to 9 hrs, via gavage by LC-MS/MS analysis; format: ADME, organism-based

SMILES: CCc1c2c(nc3ccc(OCC(=O)N4CCCCC4)cc13)-c1cc3c(c(=O)n1C2)COC(=O)[C@]3(O)CC
- Activity [1]: 23.2 g
- Activity [2]: 19.2 g
- Activity [3]: 25.8 g
- Activity (Raji [4]): 983 mm3
- inhibition in vivo at 2 mg/kg (Raji [5]): 104%
- MRT inf [6]: 1.15 h
- bioavailability [7]: 22.4%
